Tests used:
[1] = test system: rat abdominal cavity exudate mast cell; test: Anti-allergic activity test (inhibition of free histamine from mast cell, concanavalin A as freeing agent); assay type: cell-based, SD rat; conditions: 10 min, concentration of 0.03 mM, n = 5, read-out: free histamine inhibition ratio
Description: At first, an abdominal cavity exudate mast cell of an SD rat was obtained by a conventional method. Then, the above-obtained abdominal cavity mast cell was floated on a Locke solution, and a test substance in a predetermined concentration and phosphatidylcerine (final concentration 3 µg/ml) were added. The mixture was warmed up to 37° C, and after concanavalin A as a freeing agent was added, the mixture was maintained at 37° C for 10 minutes. Thereafter, the reaction solution was centrifugally separated to a sediment portion and a supernatant portion, and the histamine amount of each of these portions was quantitatively determined by an orthophthalaldehyde method. In addition, as a test substance, a dimethylformamide solution (final concentration 0.03 mM) of 3 mM 2',4'-dihydroxychalcone and a DMF solution (final concentration 0.03 mM) of an anti-inflammatory drug (Azelastine) were used. The free histamine ratio was calculated on the basis of the following equation. In control, the solvent alone was added. [formula] Ps: Histamine amount in sediment portion Pr: Histamine amount in supernatant portion. The free histamine inhibition ratio of the test substance was calculated on the basis of the following equation. [formula] S: Free histamine ratio when test substance is added. C: Free histamine ratio when no test substance is added (control). […]

[2] = Ultraviolet light absorption maximum and absorbance in ethanol solution; assay type: physicochemical; conditions: for Absorbance 300 nm / Absorbance 350 nm / Absorbance UVmax: concentration of 10 μg/ml in an ethanol solution; for Absorbance UVmax: at UVmax; for UVmax: ultraviolet light absorption maximum
[3] = test system: sunburn; test: Ultraviolet screening test (ointment on skin exposed to direct sunlight); assay type: in vivo, normally healthy persons
Description: 10 Milligrams of the ointment containing 1 wt.% of the known chalcone derivative in Example 14, obtained in Example 15, 10 mg of an ointment containing 1 wt.% of p-aminobenzoic acid as a control, obtained in the same manner as in Example 15 except for the use of p-aminobenzoic acid in place of the above known chalcone derivative (to be abbreviated as AO in Table 3 which will follow), and 10 mg of the same hydrophilic ointment as that used in Example 15 (to be abbreviated as HO in Table 2 which will follow) were respectively applied to the femoral region of each of normally healthy persons (10 persons) such that these became circular forms having nearly the same size. Then, these applied portions were exposed to direct sunlight outdoors in fine weather for 2 hours and 30 minutes.
After the exposure, each applied portion was visually observed. The portions where clear sunburn was recognized were taken as +, the portions where slight sunburn was recognized were taken as ±, and the portions where almost no change was recognized were taken as -. The test substances were so evaluated on their ultraviolet screening effects.
The ointment containing 1 wt.% of the novel chalcone derivative of Example 1, obtained in Example 15, the ointment containing 1 wt.% of the novel chalcone derivative of Example 1, the ointment containing 1 wt.% of the novel chalcone derivative of Example 2, the ointment containing 1 wt.% of the novel chalcone derivative of Example 4, the ointment containing 1 wt.% of the novel chalcone derivative of Example 6 and the ointment containing 1 wt.% of the known chalcone derivative of Example 9 were respectively similarly tested on their ultraviolet screening effects. However, the exposure time outdoors in fine weather was set for 1 hour. […]

[4] = test system: notal skins of Hartley guinea pigs; test: Safety test (ointment on skin under adhesive plaster, histological observation); assay type: in vivo; conditions: 10 mg ointment containing 5 wt.%, covered with adhesive plaster for 24 hours or 72 hours
Description: 10 milligrams of the ointment containing 5 wt.% of the known chalcone derivative of Example 14, obtained in Example 16, was applied to the notal skins of Hartley guinea pigs, and the applied portions were covered with an adhesive plaster for 24 hours or 72 hours.

[5] = test system: lipid peroxidation reaction of liver microsome; test: Cell protection activity test (inhibition of lipid peroxidation, thiobarbituric acid method); assay type: biochemical, rat; conditions: 37° C 20 minutes, n = 3 - 5; for Inhibition ratio 10^-5 concentration: 10 µM; for Inhibition ratio 10^-4M concentration: final concentration 10^-4M, 100 µM
Description: Cell impairment caused by a radical reaction of an organic compound is known as one of optical affections on the skin.
First, rat liver microsome was obtained by a conventional method, and then, suspended in 1.15 % KCl to prepare a microsome suspension.
Then, the above microsome suspension in an amount of 2 mg as protein was added to a tris-HCl buffer (pH 7.4) containing NADPH (final concentration 0.2 mM), ADP (final concentration 1 mM) and FeCl₃ (final concentration 10 µM). And, 10 µl of a dimethylformamide (DMF) solution of a test compound was added so that the total amount was 1 ml, and the resultant mixture was warmed at 37° C for 20 minutes. The test compound was added such that the final concentration became 10⁻⁴M or 10⁻⁵M.
Thereafter, the amount of formed peroxidation lipid was measured by a thiobarbituric acid method. The inhibition activity of the test compound is expressed in terms of an inhibition ratio (%) in comparison with a control group. […] In addition, in the control group, 10 µl of DMF was used in place of 10 µl of the DMF solution of the test compound.

[6] = test system: sunburn; test: Ultraviolet screening test (ointment on skin exposed to direct sunlight); assay type: in vivo, normally healthy persons; remark: listed apart in the source
[7] = test system: inflammation induced by an egg-white albumin-adjuvant system; test: Anti-inflammatory activity test (swelling of subplantar region of right hind paw); assay type: in vivo, SD rats; conditions: oral, 10 mg/weight-kg, 0.5 hour before inflammation inducer; measured 0.5, 1, 2, 3 and 4 hours after; Fig. 1
Description: As a test group, a comparison group and a control group, 5 male SD rats weighing 180 to 220 g were used per group. Each rat was measured for a size (volume) of the subplantar region of the right hind paw.
This aluminum hydroxide was used as an adjuvant. Per rat, a solution obtained by suspending 4 mg of the adjuvant and 0.2 mg of egg-white albumin in 0.1 ml of pertussis vaccine was prepared as an inflammation inducer.
0.5 Hour after the administration, the inflammation inducer was intracutaneously administered into the subplantar region of the right hind paw of each rat to induce swelling.
Then, 0.5, 1, 2, 3 and 4 hours after the administration of the inflammation inducer, each rat was measured for a size (volume) of the subplantar region of the right hind paw by volumetry. […] [formula] Ps: Measurement value of volume of subplantar region at a measurement time (average of the group). Po: Measurement value of volume of subplantar region before administration of inflammation inducer (average of the group).
Each rat of the control group was orally administered with a 10 % Nikkol-containing physiological saline solution in place of the 10 % Nikkol-containing physiological saline solution containing 2',4'-dihydroxychalcone. Thereafter, the same procedures as those for the test group were repeated to determine the swelling as a group.

[8] = ointment containing 1 wt.%, exposure time outdoors 1 hour
[9] = 10 mg ointment containing 1 wt.%, femoral region, 10 persons, direct sunlight 2 hours and 30 minutes

Structure (SMILES)	Absorbance 300 nm [2]	Absorbance 350 nm [2]	Absorbance UVmax [2]	UVmax [2]	inhibition at 30 µM [1]	numbers of persons + (Clear sunburn was recognized) [3, 8]	histological comparison of skin of applied portion and skin of normal portion [4]	Inhibition ratio 10^-5 concentration [5]	Inhibition ratio 10^-4M concentration [5]	numbers of persons + (Almost no change) [6, 8]	ultraviolet absorption spectrum (in words) ([2]; Fig. 2)	numbers of persons + (Clear sunburn was recognized) [3, 9]	numbers of persons - (Slight sunburn was recognized) [3, 9]	inhibition of swelling [7]	numbers of persons + (Almost no change) [6, 9]
CN1CCCC(n2nc(Cc3ccc(Cl)cc3)c3ccccc3c2=O)CC1 (stereo not shown) [Azelastine, reference compound]	–	–	–	–	20.8 ± 4.2%	–	–	–	–	–	–	–	–	–	–
O=C(/C=C/c1cccc(F)c1)c1ccc(O)cc1O [Example 1, 2',4'-dihydroxy-3-fluoro-chalcone]	0.70~0.85	0.70~0.85	0.80~0.95	317 nm	–	0 persons	no histological difference	90 % or more	90 % or more	4 persons	–	–	–	–	–
O=C(/C=C/c1cccc(F)c1)c1ccc(O)cc1 [Example 2]	0.90~1.00	0.45~0.55	0.90~1.20	318 nm	–	0 persons	–	16%	90 % or more	4 persons	–	–	–	–	–
O=C(/C=C/c1ccccc1F)c1ccc(O)cc1O [Example 3]	0.70~0.85	0.80~0.95	0.80~1.10	320 nm	–	–	–	90 % or more	90 % or more	–	–	–	–	–	–
O=C(/C=C/c1ccccc1)c1ccc(O)cc1 [Example 8]	1.40~1.50	0.75~0.85	1.80~2.10	318 nm	–	–	–	64%	90 % or more	–	–	–	–	–	–
O=C(/C=C/c1ccc2c(c1)OCO2)c1ccc(O)cc1 [Example 12]	0.30~0.45	0.85~1.00	0.90~1.00	355 nm	–	–	–	–	90 % or more	–	–	–	–	–	–
O=C(/C=C/c1ccc(O)c(O)c1)c1ccc(O)cc1 [Example 13]	0.35~0.50	0.85~1.00	1.00~1.15	365 nm	–	–	–	84%	90 % or more	–	–	–	–	–	–
COc1ccc2c(c1)c(CC(=O)O)c(C)n2C(=O)c1ccc(Cl)cc1 [indomethacin, reference compound]	–	–	–	–	–	–	–	–	–	–	–	–	–	significantly inhibited swelling	–

Second part, led by results:

Absorbance 300 nm [2]	Absorbance 350 nm [2]	Absorbance UVmax [2]	UVmax [2]	Structure (SMILES)	inhibition at 30 µM [1]	numbers of persons + (Clear sunburn was recognized) [3, 8]	histological comparison of skin of applied portion and skin of normal portion [4]	Inhibition ratio 10^-5 concentration [5]	Inhibition ratio 10^-4M concentration [5]	numbers of persons + (Almost no change) [6, 8]	ultraviolet absorption spectrum (in words) ([2]; Fig. 2)	numbers of persons + (Clear sunburn was recognized) [3, 9]	numbers of persons - (Slight sunburn was recognized) [3, 9]	inhibition of swelling [7]	numbers of persons + (Almost no change) [6, 9]
0.50~0.65	0.60~0.70	0.55~0.70	346 nm	O=C(/C=C/c1ccc(F)cc1)c1ccc(O)cc1O [Example 4]	–	0 persons	–	90 % or more	90 % or more	4 persons	–	–	–	–	–
0.60~0.75	0.50~0.65	0.60~0.80	305 nm	O=C(/C=C/c1ccc(C(F)(F)F)cc1)c1ccc(O)cc1O [Example 5]	–	–	–	15%	90 % or more	–	–	–	–	–	–
0.20~0.40	0.60~0.75	0.80~0.95	364 nm	CCOc1ccc(/C=C/C(=O)c2ccc(O)cc2O)cc1 [Example 6]	–	0 persons	–	30%	90 % or more	3 persons	–	–	–	–	–
0.55~0.70	0.85~1.10	1.10~1.30	365 nm	CCOc1ccccc1/C=C/C(=O)c1ccc(O)cc1O [Example 7]	–	–	–	90 % or more	90 % or more	–	–	–	–	–	–
0.40~0.55	0.90~1.00	0.80~1.10	352 nm	Cc1ccc(/C=C/C(=O)c2ccc(O)cc2O)cc1 [Example 9]	–	0 persons	–	25%	90 % or more	4 persons	–	–	–	–	–
0.85~1.00	1.15~1.30	1.20~1.40	322 nm	O=C(/C=C/c1ccc(Cl)cc1)c1ccc(O)cc1O [Example 10]	–	–	–	32%	90 % or more	–	–	–	–	–	–
0.60~0.75	0.75~0.90	0.80~0.90	320 nm	O=C(/C=C/c1ccc([N+](=O)[O-])cc1)c1ccc(O)cc1O [Example 11]	–	–	–	62%	90 % or more	–	–	–	–	–	–
0.65~0.75	0.60~0.70	0.70~0.80	306 nm	O=C(/C=C/c1ccccc1)c1ccc(O)cc1O [Example 14, 2',4'-dihydroxychalcone]	56.9 ± 12.8%	–	no difference between these two portions	90 % or more	90 % or more	–	has an absorption band in most of the wavelength regions of Dorno's ray and long-wavelength ultraviolet light	0 persons	1 persons	significantly inhibited swelling	9 persons

— patent EP0502205A1, “CHALCONE DERIVATIVE AND ULTRAVIOLET SCREENING COSMETIC” (NIPPON HYPOX LABORATORIES INCORPORATED, priority 1990, dated 1992)
